Measured values: PMC6597960 (Journal of Alzheimer's Disease Reports, 2019)
Peptide text beside a SMILES is read from it.

Key:
[1] = system: SH-SY5Y neuroblastoma cell line; experiment: Cell cytotoxicity assay; format: cell-based; settings: up to a concentration of 20 μM; 72 h; CellTiterGlo
APPSWE/Tg2576 mice = experiment: Efficacy in 5-month-old AD model mice: Y-maze spontaneous alternation; format: in vivo, mouse; settings: 5-month-old mice, 100 μg s.c. biweekly for 5 months, n = 12

Compound: C[C@H](O)[C@@H](NC(=O)[C@@H](Cc1c[nH]c2ccccc12)NC(=O)[C@@H](CCC(=O)O)NC(=O)CNC(=O)[C@@H](CCCCN)NC(=O)[C@H](N)Cc1c[nH]c2ccccc12)C(=O)NCC(=O)N[C@H](CCCNC(=N)N)C(=O)NCCC(=O)NCCCC[C@H](NC(=O)CCNC(=O)[C@@H](CCCNC(=N)N)NC(=O)CNC(=O)[C@H](NC(=O)[C@@H](Cc1c[nH]c2ccccc12)NC(=O)[C@@H](CCC(=O)O)NC(=O)CNC(=O)[C@@H](CCCCN)NC(=O)[C@H](N)Cc1c[nH]c2ccccc12)[C@H](C)O)C(=O)NCCCC[C@H](NC(=O)[C@H](CCCCNC(=O)CCNC(=O)[C@@H](CCCNC(=N)N)NC(=O)CNC(=O)[C@H](NC(=O)[C@@H](Cc1c[nH]c2ccccc12)NC(=O)[C@@H](CCC(=O)O)NC(=O)CNC(=O)[C@@H](CCCCN)NC(=O)[C@H](N)Cc1c[nH]c2ccccc12)[C@H](C)O)NC(=O)CCNC(=O)[C@@H](CCCNC(=N)N)NC(=O)CNC(=O)[C@H](NC(=O)[C@@H](Cc1c[nH]c2ccccc12)NC(=O)[C@@H](CCC(=O)O)NC(=O)CNC(=O)[C@@H](CCCCN)NC(=O)[C@H](N)Cc1c[nH]c2ccccc12)[C@H](C)O)C(=O)N[C@@H](CS)C(=O)O [RI-peptide] (HELM PEPTIDE1{[dW].[dK].G.[dE].[dW].[dT].G.[dR].[bAla].K.K.C}|PEPTIDE2{[dW].[dK].G.[dE].[dW].[dT].G.[dR].[bAla].K}|PEPTIDE3{[dW].[dK].G.[dE].[dW].[dT].G.[dR].[bAla]}|PEPTIDE4{[dW].[dK].G.[dE].[dW].[dT].G.[dR].[bAla]}$PEPTIDE1,PEPTIDE4,10:R3-9:R2|PEPTIDE1,PEPTIDE2,11:R3-10:R2|PEPTIDE2,PEPTIDE3,10:R3-9:R2$$$V2.0; N-terminus and C-terminus assumed)
- Toxicity in SH-SY5Y cells [1]: not toxic

Compound: [FFVLK]4
- Y-maze % alternation, after vs before treatment (APPSWE/Tg2576 mice): improved % alternation results after treatment
